Laboratory results from patent US8568736B2, “Polypeptide derivatives of parathyroid hormone (PTH)” (The General Hospital Corporation, priority 1999, dated 2013).
Like-named read-outs stand apart in the source and are kept apart here. No end group written: not given here.

Columns and labels:
Format in all cases: cell-based
[1] = biological target: T1, human PTH-1 receptor (endogenous, SAOS-2 cells) (Homo sapiens, UniProt Q03431); test: cAMP response in osteoblastic SAOS-2 cells
T1 construct: the human osteoblastic cell line, SAOS-2, express endogenous PTH-1 receptors; endogenous in cells; host or cells: SAOS-2 human osteoblastic cells
T1 sequence (Q03431 27-593): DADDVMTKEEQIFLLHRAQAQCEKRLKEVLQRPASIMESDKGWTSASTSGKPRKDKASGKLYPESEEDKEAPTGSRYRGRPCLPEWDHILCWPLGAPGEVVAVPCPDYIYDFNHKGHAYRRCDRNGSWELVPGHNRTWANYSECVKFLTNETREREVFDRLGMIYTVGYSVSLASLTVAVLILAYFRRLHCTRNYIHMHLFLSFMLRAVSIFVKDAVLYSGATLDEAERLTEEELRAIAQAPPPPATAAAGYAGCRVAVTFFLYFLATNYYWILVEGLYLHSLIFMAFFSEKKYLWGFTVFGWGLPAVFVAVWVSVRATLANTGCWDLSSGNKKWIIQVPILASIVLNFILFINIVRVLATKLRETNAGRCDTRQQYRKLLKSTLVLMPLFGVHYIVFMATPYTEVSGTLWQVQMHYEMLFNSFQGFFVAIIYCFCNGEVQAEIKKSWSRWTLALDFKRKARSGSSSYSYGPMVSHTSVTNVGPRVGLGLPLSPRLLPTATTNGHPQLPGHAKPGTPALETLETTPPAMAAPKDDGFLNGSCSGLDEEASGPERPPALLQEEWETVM
Description: The rat osteoblastic cell line ROS 17/2.8 (Majeska, R. J., et al, Endocrinology 107:1494-1503 (1980)) expresses endogenous PTH-1 receptors at levels of 80,000 per cell and the human osteoblastic cell line, SAOS-2, express endogenous PTH-1 receptors at levels of ˜30,000 per cell.
(§1) Stimulation of cells with peptide analogs was performed in 24-well plates. Cells were rinsed with 0.5 mL of binding buffer and treated with 200 μL of cAMP assay buffer (Dulbecco's modified Eagle's medium containing 2 mM 3-isobutyl-1-methylxanthine, 1 mg/mL bovine serum albumin, 35 mM Hepes-NaOH, pH 7.4) and 100 μL of binding buffer containing varying amounts of peptide analog (final volume=300 μL). The medium was removed after incubation for 1 h at room temperature, and the cells were frozen (−80° C.), lysed with 0.5 mL 50 mM HCl, and refrozen (−80° C.). The cAMP content of the diluted lysate was determined by radioimmunoassay. Where possible, cAMP EC50 and Maximum response values were determined using nonlinear regression (see below).
All calculations were performed using Microsoft Excel. Nonlinear regression analysis of cAMP stimulation data was performed using parameters, defined as the Minimum, Maximum, Emax, midpoint (EC50), and slope of the response curve. The predicted response (yp) for a given dose (x) of peptide was calculated using the following equation: yp=Min+[(Max−Min)/(1+(EC50/x)^slope)]. The initial parameter values were estimated from the primary data, and the Excel “Solver function” was then used to vary the four parameters in order to minimize the differences between the predicted and actual responses (least-squares method) (Bowen, W., & Jerman, J., Trends in Pharmacol. Sci. 16:413-417 (1995)). The statistical significance between two data sets was determined using a one-tailed Student's t-test, assuming unequal variances for the two sets.

[2] = biological target: T2, WT hPTH-1 receptor (Homo sapiens, UniProt Q03431); test: cAMP stimulation in COS-7 cells transiently transfected with WT hPTH-1 receptor
T2 construct: encoding the intact hPTH-1 receptor (HK-WT); expressed in transfected cells; host or cells: COS-7, transient, pcDNA-1 plasmid
T2 sequence (Q03431 27-593): T1 sequence (Q03431 27-593)
Description: (§2) COS-7 cells were transfected in 24-well plates when the cells were 85 to 95% of confluency using 200 ng of plasmid DNA that was purified by cesium chloride/ethidium bromide gradient centrifugation for each well. Assays were conducted 72 to 96 hours after transfection.
as §1
(§3) All calculations were performed using Microsoft Excel. Nonlinear regression analysis of cAMP stimulation data was performed using parameters, defined as the Minimum, Maximum, Emax, midpoint (EC50), and slope of the response curve. The predicted response (yp) for a given dose (x) of peptide was calculated using the following equation: yp=Min+[(Max−Min)/(1+(EC50/x)^slope)]. […] The statistical significance between two data sets was determined using a one-tailed Student's t-test, assuming unequal variances for the two sets.

[3] = biological target: T3, truncated human PTH-1 receptor, hΔNt (Homo sapiens, UniProt Q03431); test: cAMP stimulation in COS-7 cells transiently transfected with truncated receptor hDeINt; details: for Emax: hDeINt, Emax constrained to peptide #7 (20 μM) response
T3 construct: expressed in transfected cells; host or cells: COS-7, transient, pcDNA-1 plasmid derived from HK-WT
T3 sequence (Q03431 with tags, fused parts or gaps limits assumed): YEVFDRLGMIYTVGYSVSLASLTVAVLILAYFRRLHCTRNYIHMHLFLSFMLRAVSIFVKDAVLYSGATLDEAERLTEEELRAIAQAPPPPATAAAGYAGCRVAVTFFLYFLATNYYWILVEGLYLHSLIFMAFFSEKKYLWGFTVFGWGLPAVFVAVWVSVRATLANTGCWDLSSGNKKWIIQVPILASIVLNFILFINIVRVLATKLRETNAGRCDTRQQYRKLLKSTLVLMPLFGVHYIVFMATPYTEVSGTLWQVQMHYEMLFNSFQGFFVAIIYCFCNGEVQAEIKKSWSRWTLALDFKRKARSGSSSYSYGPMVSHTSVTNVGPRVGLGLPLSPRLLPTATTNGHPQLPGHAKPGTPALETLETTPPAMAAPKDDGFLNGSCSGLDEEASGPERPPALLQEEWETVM
Description: as §2, §1, §3

[4] = COS-7 cells, WT hPTH-1 receptor
[5] = COS-7 cells, hDeINt truncated receptor, cAMP, read-out: EC50

Row | Molecule | Emax ([1]; SAOS-2 cells) [picomole/well] | EC50 ([1]; SAOS-2 cells, cAMP, read-out: EC50 (converted)) [µM] | Emax [2, 4] [picomole/well] | EC50 ([2]; COS-7 cells, WT hPTH-1 receptor, cAMP, read-out: EC50) [µM] | EC50 [3, 5] [µM] | Emax ([3]; COS-7 cells) [picomole/well] | EC50 ([2]; COS-7 cells, WT hPTH-1 receptor, cAMP, read-out: EC50 Log M (converted)) [µM] | fold more potent than native PTH(1-14) ([3]; truncated hPTH-1 receptor lacking most of the amino-terminal domain) [fold] | EC50 Log M ([1]; SAOS-2 cells, cAMP) | EC50 [1] [µM] | EC50 [2] [µM] | EC50 [3] [µM] | potency relative to rPTH(1-34) or hPTH(1-34) (in words) ([3]; COS-7 cells expressing hΔNt)
1 | AVAEIQLMHAR-NH2 [compound 6, AlaValAlaGluIleGlnLeuMetHisAlaArg-amide] | 235 ± 7 | 75.9 | 238 ± 20 | 29.1 ± 15.3 | 27 ± 12.9 | 243 ± 63 | – | – | – | – | – | – | –
2 | AVAEIQLMHARAKH-NH2 [Peptide #1, AlaValAlaGluIleGlnLeuMetHisAlaArgAlaLysHis-amide] | 331 | – | 243 ± 63 | – | 2.37 ± 1.06 | 250 ± 61 | 1 | 100 | – | – | – | – | –
3 | AVSEIQLMHNLGKH-NH2 [native rPTH(1-14), AVSEIQLMHNLGKH, reference compound] | – | – | 221 ± 22 | – | 313 ± 121 | 222 ± 31 | – | – | barely active | – | – | – | –
4 | AVAEIQLMHARAKHLNSMERVEWLRKKLQDVHNY-NH2 [Peptide #7] | 272 ± 33 | – | 222 ± 31 | – | – | 251 ± 39 | – | – | – | 0.000112 | 313 ± 121 | 0.28 ± 0.16 | dramatically more potent
5 | CCCC[C@H](NC(=O)[C@H](CCCNC(=N)N)NC(=O)[C@H](CCC(=O)O)NC(=O)[C@@H](NC(=O)[C@H](CO)NC(=O)[C@H](C)NC(=O)[C@H](CC(C)C)NC(=O)[C@H](Cc1c[nH]cn1)NC(=O)[C@H](CCCCN)NC(=O)CNC(=O)[C@H](CC(C)C)NC(=O)[C@H](CC(N)=O)NC(=O)[C@H](Cc1c[nH]cn1)NC(=O)[C@H](CCCC)NC(=O)[C@H](CC(C)C)NC(=O)[C@H](CCC(N)=O)NC(=O)[C@@H](NC(=O)[C@H](CCC(=O)O)NC(=O)[C@H](CO)NC(=O)[C@@H](NC(=O)[C@H](C)N)C(C)C)[C@@H](C)CC)C(C)C)C(=O)N[C@@H](CCC(N)=O)C(=O)N[C@@H](Cc1c[nH]c2ccccc12)C(=O)N[C@@H](CC(C)C)C(=O)N[C@@H](CCCNC(=N)N)C(=O)N[C@@H](CCCCN)C(=O)N[C@@H](CCCCN)C(=O)N[C@@H](CC(C)C)C(=O)N[C@@H](CCC(N)=O)C(=O)N[C@@H](CC(=O)O)C(=O)N[C@H](C(=O)N[C@@H](Cc1c[nH]cn1)C(=O)N[C@@H](CC(N)=O)C(=O)N[C@@H](Cc1ccc(O)cc1)C(N)=O)C(C)C [[Nle8, 21, Y34]rPTH(1-34), [Nle^8,21,Tyr^34]-rPTH(1-34)NH2, reference compound] | 272 ± 33 | – | 226 ± 31 | – | – | 243 ± 63 | – | – | – | 0.000178 | – | – | –
